Assay results: article PMC4831468, “White collar 1‐induced photolyase expression contributes to UV‐tolerance of Ustilago maydis” (MicrobiologyOpen, 2015)

Tests used:
Type in all cases: binding
[1] = target: T1, Cry2 (Mycosarcoma maydis, UniProt A0A0D1DUB1); assay: UV-Vis absorption spectroscopy of copurified chromophore (about […] nm peak); conditions: copurified from E. coli; antenna chromophore, second site beside FAD; assigned from spectrum only
T1 construct: gene UMAG_05917; pET51b, 10xHis- and Strep-tagged, E. coli Arctic Express
T1 sequence (A0A0D1DUB1 1-623): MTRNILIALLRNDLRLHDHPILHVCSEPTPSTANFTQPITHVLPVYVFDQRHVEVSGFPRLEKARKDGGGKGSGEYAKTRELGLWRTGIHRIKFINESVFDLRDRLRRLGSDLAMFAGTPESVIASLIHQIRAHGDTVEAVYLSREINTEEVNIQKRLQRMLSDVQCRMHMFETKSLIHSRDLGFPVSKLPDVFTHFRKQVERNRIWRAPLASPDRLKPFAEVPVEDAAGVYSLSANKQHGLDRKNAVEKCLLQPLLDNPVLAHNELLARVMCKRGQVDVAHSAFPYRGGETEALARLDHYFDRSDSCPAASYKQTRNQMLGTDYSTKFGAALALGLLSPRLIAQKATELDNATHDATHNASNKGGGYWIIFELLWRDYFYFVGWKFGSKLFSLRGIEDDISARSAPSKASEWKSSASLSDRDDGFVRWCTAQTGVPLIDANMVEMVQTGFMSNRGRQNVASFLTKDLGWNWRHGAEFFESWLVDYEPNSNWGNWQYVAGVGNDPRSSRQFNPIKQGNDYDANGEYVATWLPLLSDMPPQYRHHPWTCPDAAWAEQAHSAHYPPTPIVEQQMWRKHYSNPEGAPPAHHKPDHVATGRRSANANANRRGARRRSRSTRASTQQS

[2] = target: T2, Phr1 (Mycosarcoma maydis, UniProt A0A0D1DNG6); assay: as above; conditions: copurified from E. coli; antenna chromophore, second site beside FAD; assigned from spectrum only
T2 construct: gene UMAG_06079
T2 sequence (A0A0D1DNG6 1-655): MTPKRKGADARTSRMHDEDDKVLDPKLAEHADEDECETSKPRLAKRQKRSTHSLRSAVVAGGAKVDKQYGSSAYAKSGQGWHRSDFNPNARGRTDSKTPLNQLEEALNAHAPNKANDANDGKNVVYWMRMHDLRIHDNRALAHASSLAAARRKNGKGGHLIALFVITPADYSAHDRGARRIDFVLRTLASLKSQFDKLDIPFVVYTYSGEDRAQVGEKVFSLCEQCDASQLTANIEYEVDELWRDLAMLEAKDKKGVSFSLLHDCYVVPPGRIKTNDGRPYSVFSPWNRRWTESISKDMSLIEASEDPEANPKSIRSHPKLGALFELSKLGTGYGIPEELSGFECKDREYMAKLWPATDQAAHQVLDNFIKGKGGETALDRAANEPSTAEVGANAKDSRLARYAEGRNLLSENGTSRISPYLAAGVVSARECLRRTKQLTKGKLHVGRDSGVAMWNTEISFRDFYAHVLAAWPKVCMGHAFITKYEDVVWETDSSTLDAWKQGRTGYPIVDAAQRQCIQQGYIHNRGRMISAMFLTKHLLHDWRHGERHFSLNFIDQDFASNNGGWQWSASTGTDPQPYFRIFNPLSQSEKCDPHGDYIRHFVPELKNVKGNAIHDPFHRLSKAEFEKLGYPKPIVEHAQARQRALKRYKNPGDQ

[3] = target: T3, Phr2 (Mycosarcoma maydis, UniProt A0A0D1E060); assay: UV-Vis absorption spectroscopy of copurified chromophore; blue-light photoreduction; conditions: copurified from E. coli; photoreduction with 10 mM DTT, pH 7.5, 15 C
T3 construct: gene UMAG_02144; pET51b, 10xHis- and Strep-tagged, E. coli Rosetta(DE3)
T3 sequence (A0A0D1E060 1-684): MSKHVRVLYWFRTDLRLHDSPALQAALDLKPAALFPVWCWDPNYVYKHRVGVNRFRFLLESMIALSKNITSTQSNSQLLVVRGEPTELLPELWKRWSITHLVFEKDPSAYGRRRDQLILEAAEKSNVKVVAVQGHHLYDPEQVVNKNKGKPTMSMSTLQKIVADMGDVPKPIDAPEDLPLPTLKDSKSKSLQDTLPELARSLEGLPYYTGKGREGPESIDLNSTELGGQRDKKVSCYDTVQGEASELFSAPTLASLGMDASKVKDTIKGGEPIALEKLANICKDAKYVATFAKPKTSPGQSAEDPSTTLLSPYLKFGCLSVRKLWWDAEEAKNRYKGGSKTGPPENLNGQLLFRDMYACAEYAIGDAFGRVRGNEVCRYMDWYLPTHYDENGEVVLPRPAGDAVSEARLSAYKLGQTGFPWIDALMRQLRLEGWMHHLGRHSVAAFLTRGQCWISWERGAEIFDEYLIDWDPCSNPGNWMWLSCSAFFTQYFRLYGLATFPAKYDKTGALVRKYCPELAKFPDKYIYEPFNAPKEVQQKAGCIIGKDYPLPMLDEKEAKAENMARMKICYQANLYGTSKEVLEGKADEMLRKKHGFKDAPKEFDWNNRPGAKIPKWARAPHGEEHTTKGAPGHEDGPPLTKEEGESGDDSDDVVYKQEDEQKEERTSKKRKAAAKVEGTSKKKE

[4] = target: T2, Phr1; assay: as above; conditions: copurified from E. coli; photoreduction with 10 mM DTT, pH 7.5, 15 C
[5] = target: T1, Cry2; assay: as above; conditions: copurified from E. coli; photoreduction with 10 mM DTT, pH 7.5, 15 C
[6] = target: T4, Cry1 (Mycosarcoma maydis, UniProt A0A0D1CDQ8); assay: as above; conditions: copurified from E. coli; photoreduction with 10 mM DTT, pH 7.5, 15 C
T4 construct: gene UMAG_01131; pET51b, 10xHis- and Strep-tagged, synthetic cDNA, E. coli BL21(DE3)
T4 sequence (A0A0D1CDQ8 1-881): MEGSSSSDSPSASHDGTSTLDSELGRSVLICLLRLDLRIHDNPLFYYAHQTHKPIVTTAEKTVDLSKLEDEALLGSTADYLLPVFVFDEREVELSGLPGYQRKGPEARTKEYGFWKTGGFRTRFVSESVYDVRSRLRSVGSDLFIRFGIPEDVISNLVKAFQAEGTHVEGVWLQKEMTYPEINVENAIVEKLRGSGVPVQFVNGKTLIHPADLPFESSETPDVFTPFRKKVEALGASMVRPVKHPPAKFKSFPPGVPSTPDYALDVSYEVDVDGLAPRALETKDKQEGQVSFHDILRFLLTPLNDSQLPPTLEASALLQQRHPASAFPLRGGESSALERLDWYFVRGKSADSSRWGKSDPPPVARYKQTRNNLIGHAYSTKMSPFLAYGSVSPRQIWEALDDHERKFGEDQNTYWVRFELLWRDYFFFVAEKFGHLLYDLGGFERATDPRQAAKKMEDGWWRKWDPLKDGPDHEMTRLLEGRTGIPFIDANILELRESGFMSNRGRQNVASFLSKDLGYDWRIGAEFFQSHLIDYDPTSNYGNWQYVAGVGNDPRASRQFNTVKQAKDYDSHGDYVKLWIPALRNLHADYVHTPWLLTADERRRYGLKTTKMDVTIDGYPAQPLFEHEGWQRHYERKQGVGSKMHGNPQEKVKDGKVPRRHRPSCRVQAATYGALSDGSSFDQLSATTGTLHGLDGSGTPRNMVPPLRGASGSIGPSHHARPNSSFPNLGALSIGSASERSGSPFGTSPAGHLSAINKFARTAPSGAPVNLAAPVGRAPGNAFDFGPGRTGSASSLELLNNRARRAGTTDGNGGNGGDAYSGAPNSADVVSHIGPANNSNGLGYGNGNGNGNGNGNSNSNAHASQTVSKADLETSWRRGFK

Q: How did the “UV-Vis absorption spectroscopy of copurified chromophore (about 380 nm peak)” value [1] turn out when `Nc1nc2c(c(=O)[nH]1)[N+]1=CN(c3ccc(C(=O)N[C@@H](CCC(=O)O)C(=O)O)cc3)C[C@H]1CN2` [MTHF] was run?
A: Its value is “Methenyltetrahydrofolate (MTHF) is the second cofactor of Cry2 and Phr1”.

Q: What about the “UV-Vis absorption spectroscopy of copurified chromophore (about 380 nm peak)” value [2] of the same compound?
A: The value was “Methenyltetrahydrofolate (MTHF) is the second cofactor of Cry2 and Phr1”.

Q: What does the source list for `Cc1cc2nc3c(=O)[nH]c(=O)nc-3n(C[C@H](O)[C@H](O)[C@H](O)COP(=O)(O)OP(=O)(O)OC[C@H]3O[C@@H](n4cnc5c(N)ncnc54)[C@H](O)[C@@H]3O)c2cc1C` [FAD]?
A: UV-Vis absorption spectroscopy of copurified chromophore; blue-light photoreduct [3]: these data proved that all CPF members of U. maydis bind FAD; UV-Vis absorption spectroscopy of copurified chromophore; blue-light photoreduct [4]: these data proved that all CPF members of U. maydis bind FAD; UV-Vis absorption spectroscopy of copurified chromophore; blue-light photoreduct [5]: these data proved that all CPF members of U. maydis bind FAD; UV-Vis absorption spectroscopy of copurified chromophore; blue-light photoreduct [6]: these data proved that all CPF members of U. maydis bind FAD
